# Laboratory results: ChEMBL document CHEMBL1150498, “Novel derivatives of pseudomonic acid” (Bioorg Med Chem Lett, 1997)
# System: Staphylococcus aureus
# Assay: Compound was evaluated for inhibitory activity against Staphylococcus aureus ATCC 6538P
# Format: functional
row,MIC,Compound
1,50 µg/mL,COC(=O)CCCCCCCCOC(=O)/C=C/C[C@@H]1OC[C@H](NS(=O)(=O)CCCCl)[C@@H](O)[C@H]1O
2,> 100 µg/mL,CCCS(=O)(=O)N[C@H]1CO[C@@H](C/C=C/C(=O)OCCCCCCCCC(=O)OC)[C@H](O)[C@@H]1O
3,> 100 µg/mL,CCCCS(=O)(=O)N[C@H]1CO[C@@H](C/C=C/C(=O)OCCCCCCCCC(=O)OC)[C@H](O)[C@@H]1O
4,> 100 µg/mL,COC(=O)CCCCCCCCOC(=O)/C=C/C[C@@H]1OC[C@H](NS(C)(=O)=O)[C@@H](O)[C@H]1O
5,25 µg/mL,COC(=O)CCCCCCCCOC(=O)/C=C/C[C@@H]1OC[C@H](NS(=O)(=O)c2cccc(Cl)c2)[C@@H](O)[C@H]1O
